Bounds are passed on as bounds.

Assay [1] concerns B-cells isolated from PBMC's. Description: Chymotrypsin-like ProteasomeGlo assay in B-cells isolated from PBMCs. In kind it is cell-based, human. The settings on record: Homo sapiens; B-cells isolated from PBMC's; read-out: Pglo B-Cell. An outline of the steps: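 Human B-cells were negatively isolated from buffy-coat PBMCs by density gradient, RBC lysis and Miltenyi magnetic separation. Cells were plated and compounds added by acoustic transfer after 1:100 dilution, with DMSO controls and medium-only wells. Chymotrypsin-like proteasome activity was read by luminescent ProteasomeGlo to derive IC50.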

Assay [2] relates to B cell. In words: B cell diff. (Table 4, method not given). It is filed as cell-based. The settings on record: B-cell.
Assay [3] has as its system PBMC. In words: PBMC IL 17 stim. (Table 4, method not given). It is filed as cell-based.
Assay [4] relates to Karpas cells. In words: Glo assay of Karpas cells (Table 3; ProteasomeGlo plating scheme). In kind it is cell-based. Conditions: read-out: Pglo Karpas. The gist of the method: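 Luminescent read-out of cellular chymotrypsin-like proteasome activity: cells exposed to compound 105 min at 37° C., 5% CO2, then given Suc-LLVY-Glo reagent, shaken 2-5 min and kept dark 10-15 min before reading. Values are IC50 [nM].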

Turning to `Cc1ccc2cc1CNC(=O)[C@H](CCc1ccccc1)NC(=O)CCCCC(=O)N1CCCC(CCO2)C1` (stereo partly drawn) [Compound 16, (9S)-5^4-methyl-9-phenethyl-4-oxa-7,10-diaza-1(3,1)-piperidina-5(1,3)-benzenacyclohexadecaphane-8,11,16-trione], the IC50 in assay [1], in assay [2] and in assay [3] was under 100 nM in each case.

Take `Cc1ccc2cc1CNC(=O)[C@H](CCc1ccccc1)NC(=O)[C@@H](Nc1ccccn1)CC(=O)N1CCCC(CCO2)C1` (stereo partly drawn) [Compound 36, (9S,12S)-5^4-methyl-9-phenethyl-12-(pyridin-2-ylamino)-4-oxa-7,10-diaza-1(3,1)-piperidina-5(1,3)-benzenacyclotetradecaphane-8,11,14-trione]: the IC50 in assay [1] was 100 to 500 nM; in assay [2], under 100 nM.

As to `Cc1ccc2cc1CNC(=O)[C@H](CCc1ccccc1)NC(=O)[C@@H](Nc1nc3ccccc3[nH]1)CC(=O)N1CCCC(CCO2)C1` (stereo partly drawn) [Compound 45, (9S,12S)-12-((1H-benzo[d]imidazol-2-yl)amino)-5^4-methyl-9-phenethyl-4-oxa-7,10-diaza-1(3,1)-piperidina-5(1,3)-benzenacyclotetradecaphane-8,11,14-trione], the IC50 in assay [1] was 100 to 500 nM; in assay [2], under 100 nM.

As to `Cc1ccc2cc1CNC(=O)[C@H](CCc1ccccc1)NC(=O)[C@@H](N1C(=O)CCC1=O)CC(=O)N1CCCC(CCO2)C1` (stereo partly drawn) [Compound 43, (9S,12S)-12-(2,5-dioxopyrrolidin-1-yl)-5^4-methyl-9-phenethyl-4-oxa-7,10-diaza-1(3,1)-piperidina-5(1,3)-benzenacyclotetradecaphane-8,11,14-trione], the IC50 in assay [1] and in assay [2] was under 100 nM in each case.

Turning to `Cc1ccc2cc1CNC(=O)[C@H](Cc1c[nH]c3ccccc13)NC(=O)CCC(=O)N1CCCC(CCO2)C1` (stereo partly drawn) [Compound 77, (9S)-9-((1H-indol-3-yl)methyl)-5^4-methyl-4-oxa-7,10-diaza-1(3,1)-piperidina-5(1,3)-benzenacyclotetradecaphane-8,11,14-trione], the IC50 in assay [4] and in assay [1] was 100 to 500 nM throughout.

For `Cc1ccc2cc1CNC(=O)[C@H](CCc1ccccc1)NC(=O)[C@@H](NS(C)(=O)=O)CC(=O)N1CCCC(CCO2)C1` (stereo partly drawn) [Compound 37, N-((9S,12S)-5^4-methyl-8,11,14-trioxo-9-phenethyl-4-oxa-7,10-diaza-1(3,1)-piperidina-5(1,3)-benzenacyclotetradecaphane-12-yl)methanesulfonamide], the IC50 in assay [1] and in assay [2] was under 100 nM each time.

Regarding `Cc1ccc2cc1CNC(=O)[C@H](CCc1ccccc1)NC(=O)[C@@H](NC(=O)c1ccncc1)CC(=O)N1CCCC(CCO2)C1` (stereo partly drawn) [Compound 42, N-((9S,12S)-5^4-methyl-8,11,14-trioxo-9-phenethyl-4-oxa-7,10-diaza-1(3,1)-piperidina-5(1,3)-benzenacyclotetradecaphane-12-yl)isonicotinamide], the IC50 in assay [1] and in assay [2] was under 100 nM throughout.

In the case of `Cc1ccc2cc1CNC(=O)[C@H](CCc1ccccc1)NC(=O)[C@@H](N)CC(=O)N1CCCC(CCO2)C1` (stereo partly drawn) [Compound 8, (9S,12S)-12-amino-5^4-methyl-9-phenethyl-4-oxa-7,10-diaza-1(3,1)-piperidina-5(1,3)-benzenacyclotetradecaphane-8,11,14-trione], the IC50 in assay [4] and in assay [1] was under 100 nM in each case.

`COc1ccc(CC(=O)N[C@H]2CC(=O)N3CCCC(CCOc4ccc(C)c(c4)CNC(=O)[C@H](CCc4ccccc4)NC2=O)C3)cc1` (stereo partly drawn) [Compound 83, 2-(4-methoxyphenyl)-N-((9S,12S)-5^4-methyl-8,11,14-trioxo-9-phenethyl-4-oxa-7,10-diaza-1(3,1)-piperidina-5(1,3)-benzenacyclotetradecaphane-12-yl)acetamide]: the IC50 in assay [4] and in assay [1] was under 100 nM each time.

`COc1ccc(CC(=O)N[C@H]2CC(=O)N3CCCC(CCOc4ccc(C)c(c4)CNC(=O)[C@H](CCc4ccccc4)NC2=O)C3)cc1OC` (stereo partly drawn) [Compound 63, 2-(3,4-dimethoxyphenyl)-N-((9S,12S)-5^4-methyl-8,11,14-trioxo-9-phenethyl-4-oxa-7,10-diaza-1(3,1)-piperidina-5(1,3)-benzenacyclotetradecaphane-12-yl)acetamide]: the IC50 in assay [4], in assay [1] and in assay [3] was under 100 nM in each case.

For the compound `Cc1ccc2cc1CNC(=O)[C@H](CCc1ccccc1)NC(=O)CCC(=O)N1CCCC(CCO2)C1` (stereo partly drawn) [Compound 13, (9S)-5^4-methyl-9-phenethyl-4-oxa-7,10-diaza-1(3,1)-piperidina-5(1,3)-benzenacyclotetradecaphane-8,11,14-trione], the IC50 in assay [1] is under 100 nM; in assay [2], 100 to 500 nM.

With `Cc1ccc2cc1CNC(=O)[C@H](CCc1ccccc1)NC(=O)[C@@H](NC(=O)[C@@H](C)c1ccccc1)CC(=O)N1CCCC(CCO2)C1` (stereo partly drawn) [Compound 81, (2S)-N-((9S,12S)-5^4-methyl-8,11,14-trioxo-9-phenethyl-4-oxa-7,10-diaza-1(3,1)-piperidina-5(1,3)-benzenacyclotetradecaphane-12-yl)-2-phenylpropanamide], the IC50 in assay [4] and in assay [1] was under 100 nM throughout.

Turning to `Cc1ccc2cc1CNC(=O)[C@H](CCc1ccccc1)NC(=O)[C@@H](NC(=O)C1CCCc3ccccc31)CC(=O)N1CCCC(CCO2)C1` (stereo partly drawn) [Compound 82, N-((9S,12S)-5^4-methyl-8,11,14-trioxo-9-phenethyl-4-oxa-7,10-diaza-1(3,1)-piperidina-5(1,3)-benzenacyclotetradecaphane-12-yl)-1,2,3,4-tetrahydronaphthalene-1-carboxamide], the IC50 in assay [4] and in assay [1] was under 100 nM in each case.

Regarding `Cc1ccc2cc1CNC(=O)[C@H](CCc1ccccc1)NC(=O)[C@@H](NC(=O)[C@H](C)c1ccccc1)CC(=O)N1CCCC(CCO2)C1` (stereo partly drawn) [Compound 80, (2R)-N-((9S,12S)-5^4-methyl-8,11,14-trioxo-9-phenethyl-4-oxa-7,10-diaza-1(3,1)-piperidina-5(1,3)-benzenacyclotetradecaphane-12-yl)-2-phenylpropanamide], the IC50 in assay [4] and in assay [1] was under 100 nM each time.

(Values after patent US20240415819A1, “MACROCYCLIC COMPOUNDS AS PROTEASOME SUBUNIT BETA TYPE-5 INHIBITORS” (Lead Discovery Center GmbH, priority 2021, published 2024).)
